Test results: US20120029187A1, “HALOALKYLSULFONANILIDE DERIVATIVE” (Nissan Chemical Industries, Ltd., priority 2009, published 2012)

Legend:
Assay type in all cases: in vivo
barnyardgrass [1] = assay: Test Example 3: herbicidal effects in soil treatment; conditions: dose 3.2 g/a
Excerpt: (§1) Test on the Herbicidal Effects in Soil Treatment
(§2) Sterilized diluvial soil was put in plastic boxes with a length of 21 cm, a width of 13 cm and a depth of 7 cm, and seeds of barnyardgrass, large crabgrass, giant foxtail, wild oat, blackgrass, velvetleaf, common ragweed, redroot pigweed, common lambsquater, posumbu knotweed, common chickweed corn, soybean, rice, wheat and sugar beet were sown in spots and covered with an about 1.5 cm-thick soil layer. Emulsifiable concentrates containing compounds of the present invention formulated in accordance with Formulation Example 2 were uniformly applied to the soil surfaces at predetermined doses through a small sprayer after dilute with water. Three weeks after the application, the herbicidal effects against various plants were determined on the same evaluation scale as in Test Example 1.
(§3) A: barnyardgrass, B: bulrush, C: ducksalad, D: large crabgrass, E: giant foxtail, F: wild oat, G: water foxtail, H: Italian ryegrass, I: velvetleaf, J: common ragweed, K: redroot pigweed, L: common lambsquater, M: posumbu knotweed, N: common chickweed, O: beadstraw, a: transplanted rice, b: corn, c: soybean, d: direct-seeded rice, e: wheat, f: sugar beet.
(§4) The doses (g/a) represents the amounts in g per 1 are (a) applied after adjustment of concentration adjustment.

redroot pigweed [2] = assay: as above; conditions: dose 3.2 g/a
Excerpt: as §1, §2, §3, §4

common lambsquater [3] = assay: as above; conditions: dose 3.2 g/a
Excerpt: as §1, §2, §3, §4

large crabgrass [4] = assay: as above; conditions: dose 3.2 g/a
Excerpt: as §1, §2, §3, §4

giant foxtail [5] = assay: as above; conditions: dose 3.2 g/a
Excerpt: as §1, §2, §3, §4

Italian ryegrass [6] = assay: as above; conditions: dose 3.2 g/a
Excerpt: as §1, §2, §3, §4

posumbu knotweed [7] = assay: as above; conditions: dose 3.2 g/a
Excerpt: as §1, §2, §3, §4

common chickweed [8] = assay: as above; conditions: dose 3.2 g/a
Excerpt: as §1, §2, §3, §4

water foxtail [9] = assay: as above; conditions: dose 3.2 g/a
Excerpt: as §1, §2, §3, §4

common ragweed [10] = assay: as above; conditions: dose 3.2 g/a
Excerpt: as §1, §2, §3, §4

transplanted rice = assay: Test Example 1: preemergence treatment under submerged conditions, effect on crop; conditions: dose 2.52 g/a
Excerpt: (§5) Test on the Herbicidal Effects in Preemergence Treatment on Weeds Under Submerged Conditions
(§6) Alluvial soil was put in 1/30000-are styrol cups and admixed with water so that it was submerged at a depth of 4 cm. In each cup, seeds of barnyardgrass, bulrush and ducksalad were sown together, and rice seedlings at the 2.5-leaf stage were transplanted. On the same day as the seeding, emulsifiable concentrates containing compounds of the present invention formulated in accordance with Formulation Example 2 were applied to the water surfaces at predetermined doses after diluted with water. The cups were placed in a greenhouse at 25 to 30° C. to grow the plants. Three weeks after the application, the herbicidal effects against various plants were determined on the following evaluation scale.
(§7) 5 mortality of 90% or above (nearly complete death)
(§8) 4 mortality of at least 70% and less than 90%
(§9) 3 mortality of at least 40% and less than 70%
(§10) 2 mortality of at least 20% and less than 40%
(§11) 1 mortality of at least 5% and less than 20%
(§12) 0 mortality of less than 5% (almost ineffective)
as §3, §4

ducksalad [11] = assay: Test Example 1: herbicidal effects in preemergence treatment under submerged conditions; conditions: dose 2.52 g/a
Excerpt: as §5, §6, §7, §8, §9, §10, §11, §12, §3, §4

bulrush [12] = assay: as above; conditions: dose 2.52 g/a
Excerpt: as §5, §6, §7, §8, §9, §10, §11, §12, §3, §4

barnyardgrass [13] = assay: as above; conditions: dose 2.52 g/a
Excerpt: as §5, §6, §7, §8, §9, §10, §11, §12, §3, §4

barnyardgrass [14] = assay: Test Example 4: herbicidal effect in foliage treatment; conditions: dose 3.2 g/a, three weeks after the application
Excerpt: (§13) Test on the Herbicidal Effect in Foliage Treatment
as §2, with “chickweed,” for “chickweed”, “The boxes were placed in a greenhouse at 25 to 30° C. to grow the plants. After 14 days, emulsifiable” for “Emulsifiable”, “foliage” for “soil surfaces”, “diluted” for “dilute”
as §3, §4

velvetleaf = assay: as above; conditions: dose 3.2 g/a, three weeks after the application
Excerpt: as §13
as §2, with “chickweed,” for “chickweed”, “The boxes were placed in a greenhouse at 25 to 30° C. to grow the plants. After 14 days, emulsifiable” for “Emulsifiable”, “foliage” for “soil surfaces”, “diluted” for “dilute”
as §3, §4

redroot pigweed [15] = assay: as above; conditions: dose 3.2 g/a, three weeks after the application
Excerpt: as §13
as §2, with “chickweed,” for “chickweed”, “The boxes were placed in a greenhouse at 25 to 30° C. to grow the plants. After 14 days, emulsifiable” for “Emulsifiable”, “foliage” for “soil surfaces”, “diluted” for “dilute”
as §3, §4

common lambsquater [16] = assay: as above; conditions: dose 3.2 g/a, three weeks after the application
Excerpt: as §13
as §2, with “chickweed,” for “chickweed”, “The boxes were placed in a greenhouse at 25 to 30° C. to grow the plants. After 14 days, emulsifiable” for “Emulsifiable”, “foliage” for “soil surfaces”, “diluted” for “dilute”
as §3, §4

large crabgrass [17] = assay: as above; conditions: dose 3.2 g/a, three weeks after the application
Excerpt: as §13
as §2, with “chickweed,” for “chickweed”, “The boxes were placed in a greenhouse at 25 to 30° C. to grow the plants. After 14 days, emulsifiable” for “Emulsifiable”, “foliage” for “soil surfaces”, “diluted” for “dilute”
as §3, §4

giant foxtail [18] = assay: as above; conditions: dose 3.2 g/a, three weeks after the application
Excerpt: as §13
as §2, with “chickweed,” for “chickweed”, “The boxes were placed in a greenhouse at 25 to 30° C. to grow the plants. After 14 days, emulsifiable” for “Emulsifiable”, “foliage” for “soil surfaces”, “diluted” for “dilute”
as §3, §4

Italian ryegrass [19] = assay: as above; conditions: dose 3.2 g/a, three weeks after the application
Excerpt: as §13
as §2, with “chickweed,” for “chickweed”, “The boxes were placed in a greenhouse at 25 to 30° C. to grow the plants. After 14 days, emulsifiable” for “Emulsifiable”, “foliage” for “soil surfaces”, “diluted” for “dilute”
as §3, §4

posumbu knotweed [20] = assay: as above; conditions: dose 3.2 g/a, three weeks after the application
Excerpt: as §13
as §2, with “chickweed,” for “chickweed”, “The boxes were placed in a greenhouse at 25 to 30° C. to grow the plants. After 14 days, emulsifiable” for “Emulsifiable”, “foliage” for “soil surfaces”, “diluted” for “dilute”
as §3, §4

common chickweed [21] = assay: as above; conditions: dose 3.2 g/a, three weeks after the application
Excerpt: as §13
as §2, with “chickweed,” for “chickweed”, “The boxes were placed in a greenhouse at 25 to 30° C. to grow the plants. After 14 days, emulsifiable” for “Emulsifiable”, “foliage” for “soil surfaces”, “diluted” for “dilute”
as §3, §4

water foxtail [22] = assay: as above; conditions: dose 3.2 g/a, three weeks after the application
Excerpt: as §13
as §2, with “chickweed,” for “chickweed”, “The boxes were placed in a greenhouse at 25 to 30° C. to grow the plants. After 14 days, emulsifiable” for “Emulsifiable”, “foliage” for “soil surfaces”, “diluted” for “dilute”
as §3, §4

common ragweed [23] = assay: as above; conditions: dose 3.2 g/a, three weeks after the application
Excerpt: as §13
as §2, with “chickweed,” for “chickweed”, “The boxes were placed in a greenhouse at 25 to 30° C. to grow the plants. After 14 days, emulsifiable” for “Emulsifiable”, “foliage” for “soil surfaces”, “diluted” for “dilute”
as §3, §4

ducksalad [24] = assay: Test Example 2: herbicidal effects during the vegetation period under submerged conditions; conditions: treatment during the vegetation period under submerged conditions; dose 2.52 g/a
Protocol: (§14) Test on the Herbicidal Effects on Weeds During the Vegetation Period Under Submerged Conditions
(§15) Alluvial soil was put in 1/30000-are styrol cups and admixed with water so that it was submerged at a depth of 4 cm. In each cup, seeds of barnyardgrass, bulrush and ducksalad were sown together, and the cups were placed in a greenhouse at 25 to 30° C. to grow the plants. When the barnyardgrass, bulrush and ducksalad reached the 1- or 2-leaf stage, emulsifiable concentrates containing compounds of the present invention formulated in accordance with Formulation Example 2 were applied to the water surfaces at predetermined doses after diluted with water. Three weeks after the application, the herbicidal effects against various plants were determined on the same evaluation scale as in Test Example 1.
as §3, §4

bulrush [25] = assay: as above; conditions: treatment during the vegetation period under submerged conditions; dose 2.52 g/a
Protocol: as §14, §15, §3, §4

barnyardgrass [26] = assay: as above; conditions: treatment during the vegetation period under submerged conditions; dose 2.52 g/a
Protocol: as §14, §15, §3, §4

CCOC(=O)N(c1ccccc1CN1COC(C)C(C)C1=O)S(=O)(=O)C(F)(F)F (stereo not shown) [II-71]
A: barnyardgrass, herbicidal effect (evaluation scale 0-5) (barnyardgrass [1]): 5 (mortality of 90% or above (nearly complete death)) | K: redroot pigweed, herbicidal effect (evaluation scale 0-5) (redroot pigweed [2]): 5 (mortality of 90% or above (nearly complete death)) | L: common lambsquater, herbicidal effect (evaluation scale 0-5) (common lambsquater [3]): 0 (mortality of less than 5% (almost ineffective)) | D: large crabgrass, herbicidal effect (evaluation scale 0-5) (large crabgrass [4]): 5 (mortality of 90% or above (nearly complete death)) | E: giant foxtail, herbicidal effect (evaluation scale 0-5) (giant foxtail [5]): 4 (mortality of at least 70% and less than 90%) | H: Italian ryegrass, herbicidal effect (evaluation scale 0-5) (Italian ryegrass [6]): 2 (mortality of at least 20% and less than 40%) | M: posumbu knotweed, herbicidal effect (evaluation scale 0-5) (posumbu knotweed [7]): 3 (mortality of at least 40% and less than 70%) | N: common chickweed, herbicidal effect (evaluation scale 0-5) (common chickweed [8]): 3 (mortality of at least 40% and less than 70%) | G: water foxtail, herbicidal effect (evaluation scale 0-5) (water foxtail [9]): 5 (mortality of 90% or above (nearly complete death)) | J: common ragweed, herbicidal effect (evaluation scale 0-5) (common ragweed [10]): 5 (mortality of 90% or above (nearly complete death)) | a: transplanted rice, effect on crop (evaluation scale 0-5) (transplanted rice): 0 (mortality of less than 5% (almost ineffective)) | C: ducksalad, herbicidal effect (evaluation scale 0-5) (ducksalad [11]): 5 (mortality of 90% or above (nearly complete death)) | B: bulrush, herbicidal effect (evaluation scale 0-5) (bulrush [12]): 5 (mortality of 90% or above (nearly complete death)) | A: barnyardgrass, herbicidal effect (evaluation scale 0-5) (barnyardgrass [13]): 5 (mortality of 90% or above (nearly complete death)) | A: barnyardgrass, herbicidal effect (barnyardgrass [14]): 5 (mortality of 90% or above (nearly complete death)) | I: velvetleaf, herbicidal effect (velvetleaf): 5 (mortality of 90% or above (nearly complete death)) | K: redroot pigweed, herbicidal effect (redroot pigweed [15]): 0 (mortality of less than 5% (almost ineffective)) | L: common lambsquater, herbicidal effect (common lambsquater [16]): 0 (mortality of less than 5% (almost ineffective)) | D: large crabgrass, herbicidal effect (large crabgrass [17]): 4 (mortality of at least 70% and less than 90%) | E: giant foxtail, herbicidal effect (giant foxtail [18]): 4 (mortality of at least 70% and less than 90%) | H: Italian ryegrass, herbicidal effect (Italian ryegrass [19]): 1 (mortality of at least 5% and less than 20%) | M: posumbu knotweed, herbicidal effect (posumbu knotweed [20]): 0 (mortality of less than 5% (almost ineffective)) | N: common chickweed, herbicidal effect (common chickweed [21]): 4 (mortality of at least 70% and less than 90%) | G: water foxtail, herbicidal effect (water foxtail [22]): 5 (mortality of 90% or above (nearly complete death)) | J: common ragweed, herbicidal effect (common ragweed [23]): 3 (mortality of at least 40% and less than 70%) | C: ducksalad, herbicidal effect (evaluation scale 0-5) (ducksalad [24]): 5 (mortality of 90% or above (nearly complete death)) | B: bulrush, herbicidal effect (evaluation scale 0-5) (bulrush [25]): 5 (mortality of 90% or above (nearly complete death)) | A: barnyardgrass, herbicidal effect (evaluation scale 0-5) (barnyardgrass [26]): 5 (mortality of 90% or above (nearly complete death))
